Results from the supplement of paper PMC10307832.

Key:
Experiment in all cases: relative viability (nuclei count vs DMSO), 5 days (fraction); higher = more cells survive
Venetoclax + Vorinostat = compound: CC1(C)CCC(CN2CCN(c3ccc(C(=O)NS(=O)(=O)c4ccc(NCC5CCOCC5)c([N+](=O)[O-])c4)c(Oc4cnc5[nH]ccc5c4)c3)CC2)=C(c2ccc(Cl)cc2)C1 [Venetoclax] + O=C(CCCCCCC(=O)Nc1ccccc1)NO [Vorinostat] (partner 1 µM)
Method in brief: (§1)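 Five library-drug doses in √10 steps were combined with a fixed anchor-drug dose, or a single drug was given alone, by pin tool to lung cancer cell lines in 1536-well plates the day after seeding. Nuclei were stained and counted after 5 days. Relative viability is the nuclei count in treated wells over that in vehicle wells, taken as the median of duplicate plates.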

Selumetinib + AZD7762 = compound: Cn1cnc2c(F)c(Nc3ccc(Br)cc3Cl)c(C(=O)NOCCO)cc21 [Selumetinib] + NC(=O)Nc1cc(-c2cccc(F)c2)sc1C(=O)N[C@H]1CCCNC1 [AZD7762] (partner 0.2 µM)
Method in brief: as §1

Selumetinib + Phenformin = compound: Cn1cnc2c(F)c(Nc3ccc(Br)cc3Cl)c(C(=O)NOCCO)cc21 [Selumetinib] + N=C(N)NC(=N)NCCc1ccccc1 [Phenformin] (partner 250 µM)
Method in brief: as §1

Venetoclax + Bortezomib = compound: CC1(C)CCC(CN2CCN(c3ccc(C(=O)NS(=O)(=O)c4ccc(NCC5CCOCC5)c([N+](=O)[O-])c4)c(Oc4cnc5[nH]ccc5c4)c3)CC2)=C(c2ccc(Cl)cc2)C1 [Venetoclax] + CC(C)C[C@H](NC(=O)[C@H](Cc1ccccc1)NC(=O)c1cnccn1)B(O)O [Bortezomib] (partner 0.002 µM)
Method in brief: as §1

Row | Cell Line | relative viability (Venetoclax + Vorinostat; first compound 0.01 µM) | relative viability (Venetoclax + Vorinostat; first compound 0.03162 µM) | relative viability (Venetoclax + Vorinostat; first compound 0.1 µM) | relative viability (Venetoclax + Vorinostat; first compound 0.3162 µM) | relative viability (Venetoclax + Vorinostat; first compound 1 µM) | relative viability (Selumetinib + AZD7762; first compound 0.02 µM) | relative viability (Selumetinib + AZD7762; first compound 0.06325 µM) | relative viability (Selumetinib + AZD7762; first compound 0.2 µM) | relative viability (Selumetinib + AZD7762; first compound 0.6325 µM) | relative viability (Selumetinib + Phenformin; first compound 0.02 µM) | relative viability (Selumetinib + Phenformin; first compound 0.06325 µM) | relative viability (Selumetinib + Phenformin; first compound 0.2 µM) | relative viability (Selumetinib + Phenformin; first compound 0.6325 µM) | relative viability (Venetoclax + Bortezomib; first compound 0.01 µM) | relative viability (Venetoclax + Bortezomib; first compound 0.03162 µM) | relative viability (Venetoclax + Bortezomib; first compound 0.1 µM) | relative viability (Venetoclax + Bortezomib; first compound 0.3162 µM) | relative viability (Venetoclax + Bortezomib; first compound 1 µM)
1 | SW 900 | 0.485 | 0.663 | 0.545 | 0.617 | 0.486 | 0.59 | 0.636 | 0.611 | 0.553 | 0.603 | 0.573 | 0.416 | 0.569 |  |  |  |  | 
2 | PC-3 [JPC-3] | 0.879 | 1.12 | 0.929 | 0.915 | 0.675 | 0.656 | 0.676 | 0.57 | 0.678 | 0.446 | 0.489 | 0.473 | 0.414 | 0.764 | 0.822 | 0.794 | 0.771 | 0.829
3 | NCI-H1648 |  | 0.397 | 0.494 | 0.451 | 0.477 |  | 0.737 | 0.733 | 0.67 |  |  |  |  |  |  |  |  | 
4 | A549 |  |  |  |  |  |  |  |  |  | 0.132 | 0.14 | 0.143 | 0.0906 |  |  |  |  | 
5 | A-427 | 0.834 | 0.863 | 0.857 | 0.849 | 0.879 | 0.7 | 0.613 | 0.628 | 0.618 | 0.264 | 0.271 | 0.266 | 0.23 | 0.983 | 0.988 | 0.982 | 1.08 | 1.06
6 | NCI-H1975 | 0.692 | 0.678 | 0.743 | 0.688 | 0.72 | 0.69 | 0.599 | 0.662 | 0.527 | 0.426 | 0.378 | 0.379 | 0.34 | 0.424 | 0.393 | 0.35 | 0.344 | 0.299
7 | LU99A | 0.595 | 0.703 | 0.416 | 0.521 | 0.552 | 0.461 | 0.367 | 0.397 | 0.342 | 0.905 | 0.799 | 0.85 | 0.835 | 1.13 | 1.32 | 0.925 | 1.19 | 1.23
8 | SK-LU-1 | 0.771 | 0.803 | 0.755 | 0.745 | 0.719 |  |  |  |  | 0.536 | 0.484 | 0.505 | 0.239 | 0.937 | 1.19 | 1.24 | 1.34 | 1.08
9 | COR-L 105 | 0.789 | 0.763 | 0.866 | 0.899 | 0.818 |  |  |  |  | 0.355 | 0.321 | 0.331 | 0.297 | 0.867 | 0.902 | 0.751 | 0.777 | 0.691
10 | NCI-H2009 | 0.746 | 0.729 | 0.758 | 0.714 | 0.681 |  |  |  |  | 0.428 | 0.359 | 0.29 | 0.217 | 1.09 | 0.951 | 1.03 | 0.991 | 1.02
11 | Calu-6 |  |  |  |  |  |  |  |  |  |  |  |  |  | 0.981 | 0.972 | 1.02 | 1.08 | 1.05
12 | NCI-H2023 | 0.749 | 0.708 | 0.73 | 0.631 | 0.587 |  |  |  |  | 0.373 | 0.399 | 0.381 | 0.341 | 0.964 | 1 | 1.03 | 1.01 | 0.853
13 | SW 1573 | 0.712 | 0.656 | 0.643 | 0.692 | 0.572 |  |  |  |  | 0.291 | 0.275 | 0.276 | 0.212 | 0.983 | 1.06 | 1.02 | 1.18 | 0.997
14 | NCI-H358 | 0.794 | 0.882 | 0.67 | 0.697 | 0.626 | 0.374 | 0.349 | 0.385 | 0.367 | 0.211 | 0.175 | 0.183 | 0.158 |  |  |  |  | 
15 | NCI-H1944 | 0.606 | 0.586 | 0.442 | 0.608 | 0.498 | 0.448 | 0.438 | 0.401 | 0.427 | 0.192 | 0.195 | 0.157 | 0.168 |  |  |  |  | 
16 | NCI-H2342 | 0.667 | 0.823 | 0.739 | 0.683 | 0.802 | 0.551 | 0.436 | 0.474 | 0.568 | 0.623 | 0.618 | 0.564 | 0.722 |  |  |  |  | 
17 | EBC-1 |  |  |  |  |  |  |  |  |  |  |  |  |  | 0.409 | 0.604 | 0.609 | 0.511 | 0.481
18 | NCI-H522 | 1 | 0.849 | 0.96 | 0.839 | 0.896 | 0.728 | 0.781 | 0.842 | 0.828 | 0.641 | 0.556 | 0.635 | 0.609 |  |  |  |  | 
19 | NCI-H661 | 0.741 | 0.804 | 0.692 | 0.893 | 0.722 |  |  |  |  | 0.261 | 0.291 | 0.272 | 0.246 | 0.722 | 0.762 | 0.717 | 0.799 | 0.646
20 | SK-MES-1 | 1.01 | 1.1 | 1.06 | 1.08 | 0.966 |  |  |  |  | 0.667 | 0.599 | 0.637 | 0.462 |  |  |  |  | 
21 | NCI-H2170 | 0.685 | 0.763 | 0.682 | 0.804 | 0.742 | 0.874 | 0.88 | 0.711 | 0.838 | 0.408 | 0.395 | 0.386 | 0.326 |  |  |  |  | 
22 | NCI-H520 | 0.761 | 0.75 |  | 0.668 | 0.733 |  |  |  |  | 0.616 | 0.659 | 0.671 | 0.784 | 0.657 | 0.708 | 0.431 | 0.628 | 0.494
23 | NCI-H1793 | 0.685 | 0.958 | 0.703 | 0.801 | 0.623 | 0.408 | 0.394 | 0.406 | 0.297 | 0.364 | 0.349 | 0.316 | 0.273 |  |  |  |  | 
24 | NCI-H1792 |  |  |  |  |  | 0.571 | 0.447 | 0.417 | 0.393 | 0.192 |  | 0.144 | 0.229 | 0.764 | 0.928 | 1.05 | 0.924 | 0.86
25 | IA-LM | 0.673 | 1.01 | 0.8 | 0.958 | 1 |  |  |  |  |  |  |  |  | 0.745 | 0.701 | 0.959 | 0.698 | 0.823
